Reference: patent publication US20150037825A1 (priority 2011, published 2015)
Where a name gives a salt, the structure may show the parent alone. Marks after values point to notes of the source that are not given here.

System: plasma metabolites
Details: rat, in vivo

C[C@H]1C[C@@H]2[C@H]([C@@H](O)C[C@@]3(C)[C@H]2CC[C@]3(O)C(=O)CO)[C@@]2(C)C=CC(=O)C=C12 [Methylprednisolone]
18-Hydroxy-11-deoxycorticosterone, ratio versus control: 0.15 * | Aspartate, ratio versus control: 1.37 * | Cholesterolester No 01, ratio versus control: 1.08 * | Glutamate, ratio versus control: 1.11 * | Glycerol-3-phosphate, polar fraction, ratio versus control: 1.4 * | Ketoleucine, ratio versus control: 0.75 * | Pyruvate, ratio versus control: 0.65 *

O=P1(N(CCCl)CCCl)NCCCO1 (stereo not drawn) [Cyclophosphamide monohydrate]
3-Hydroxybutyrate, plasma, ratio vs control: 0.75 * | 18-Hydroxy-11-deoxycorticosterone, plasma, ratio vs control: 0.16 * | Choline plasmalogen No 02, plasma, ratio vs control: 1.13 * | Citrate, plasma, ratio vs control: 0.78 * | Isoleucine, plasma, ratio vs control: 1.23 * | Ketoleucine, plasma, ratio vs control: 0.88 * | Leucine, plasma, ratio vs control: 1.33 * | Lignoceric acid (C24:0), plasma, ratio vs control: 1.29 * | Taurine, plasma, ratio vs control: 1.21 * | Tricosanoic acid (C23:0), plasma, ratio vs control: 1.44 * | Valine, plasma, ratio vs control: 1.25 *

Nc1ccccc1Cl [2-Chloroaniline]
3,4-Dihydroxyphenylalanine (DOPA), ratio versus control: 0.76 | 3,4-Dihydroxyphenylglycol (DOPEG), ratio versus control: 0.87 | 3-Hydroxyindole, ratio versus control: 1.40 | 3-Indoxylsulfate, ratio versus control: 1.68 | 3-Methoxytyrosine, ratio versus control: 1.48 | Cytosine, ratio versus control: 1.41 | Ketoleucine, ratio versus control: 0.60 | Ribal, ratio versus control: 1.24 | Serotonin (5-HT), ratio versus control: 2.64 | biomarkers of table 12a and/or 12b (early indicators of blood anemia) altered as early as: 7 days

Nc1ccn([C@@H]2O[C@H](CO)[C@@H](O)[C@@H]2O)c(=O)n1 [Cytarabin]
3-Hydroxybutyrate, plasma, ratio vs control: 0.53 * | 18-Hydroxy-11-deoxycorticosterone, plasma, ratio vs control: 0.13 * | Choline plasmalogen No 02, plasma, ratio vs control: 1.11 * | Citrate, plasma, ratio vs control: 0.81 * | Isoleucine, plasma, ratio vs control: 1.1 * | Ketoleucine, plasma, ratio vs control: 0.75 * | Leucine, plasma, ratio vs control: 1.12 * | Lignoceric acid (C24:0), plasma, ratio vs control: 1.31 * | Taurine, plasma, ratio vs control: 1.27 * | Tricosanoic acid (C23:0), plasma, ratio vs control: 1.3 | Valine, plasma, ratio vs control: 1.1 *

C=CC[C@@H]1/C=C(\C)C[C@H](C)C[C@H](OC)[C@H]2O[C@@](O)(C(=O)C(=O)N3CCCC[C@H]3C(=O)O[C@H](/C(C)=C/[C@@H]3CC[C@@H](O)[C@H](OC)C3)[C@H](C)[C@@H](O)CC1=O)[C@H](C)C[C@@H]2OC [Tacrolimus]
18-Hydroxy-11-deoxycorticosterone, ratio versus control: 0.48 * | Aspartate, ratio versus control: 1.42 * | Cholesterolester No 01, ratio versus control: 1.05 * | Glutamate, ratio versus control: 1.29 * | Glycerol-3-phosphate, polar fraction, ratio versus control: 1.54 * | Ketoleucine, ratio versus control: 0.85 * | Pyruvate, ratio versus control: 0.77 *

Nc1ccc(Cl)c([N+](=O)[O-])c1 [4-Chloro-3-nitroaniline]
3,4-Dihydroxyphenylalanine (DOPA), ratio versus control: 0.93 | 3,4-Dihydroxyphenylglycol (DOPEG), ratio versus control: 0.53 | Ketoleucine, ratio versus control: 0.61 | biomarkers of table 12a and/or 12b (early indicators of blood anemia) altered as early as: 7 days

Lead acetate trihydrate
Cholesterolester No 01, plasma, ratio vs control: 1.28 * | Glucose, plasma, ratio vs control: 0.91 | Phosphatidylcholine (C16:0, C18:2), plasma, ratio vs control: 1.06 * | Sphingomyelin (d18:2, C18:0), plasma, ratio vs control: 1.09 * | TAG (C18:1, C18:2), plasma, ratio vs control: 1.33 * | TAG (C18:2, C18:2), plasma, ratio vs control: 1.48 * | TAG No 01, plasma, ratio vs control: 1.5 *

Nc1ccccc1 [Aniline]
3,4-Dihydroxyphenylalanine (DOPA), ratio versus control: 0.81 | 3,4-Dihydroxyphenylglycol (DOPEG), ratio versus control: 0.84 | 3-Hydroxyindole, ratio versus control: 1.61 | 3-Indoxylsulfate, ratio versus control: 1.64 | 3-Methoxytyrosine, ratio versus control: 1.35 | Cytosine, ratio versus control: 1.62 | Ketoleucine, ratio versus control: 0.94 | Ribal, ratio versus control: 1.66 | biomarkers of table 12a and/or 12b (early indicators of blood anemia) altered as early as: 7 days

COc1cccc2c1C(=O)c1c(O)c3c(c(O)c1C2=O)C[C@@](O)(C(=O)CO)C[C@@H]3O[C@H]1C[C@H](N)[C@H](O)[C@H](C)O1 [Adriamycin hydrochloride]
3-Hydroxybutyrate, plasma, ratio vs control: 0.66 * | 18-Hydroxy-11-deoxycorticosterone, plasma, ratio vs control: 0.44 * | Choline plasmalogen No 02, plasma, ratio vs control: 1.18 * | Citrate, plasma, ratio vs control: 0.86 | Ketoleucine, plasma, ratio vs control: 0.69 * | Lignoceric acid (C24:0), plasma, ratio vs control: 2.04 * | Taurine, plasma, ratio vs control: 1.39 * | Tricosanoic acid (C23:0), plasma, ratio vs control: 2.14 *

Nc1ccc(Cl)c([N+](=O)[O-])c1 [4-Chloro-3 nitroaniline]
3-Hydroxyindole, ratio versus control: 1.25 | 3-Indoxylsulfate, ratio versus control: 1.34 | 3-Methoxytyrosine, ratio versus control: 1.90 | Cytosine, ratio versus control: 1.75 | Ribal, ratio versus control: 1.89 | Serotonin (5-HT), ratio versus control: 9.50

N.N.O=C([O-])C1(C(=O)[O-])CCC1.[Pt+2] [Carboplatin]
3-Hydroxybutyrate, plasma, ratio vs control: 0.74 * | 4-Hydroxyphenylpyruvate, plasma, ratio vs control: 0.39 * | 14-Methylhexadecanoic acid, plasma, ratio vs control: 0.72 * | 21-Hydroxyprogesterone (11-Deoxycorticosterone), plasma, ratio vs control: 0.09 * | Ascorbic acid, plasma, ratio vs control: 0.84 * | Choline plasmalogen (C18, C20:4), plasma, ratio vs control: 0.89 * | Corticosterone, plasma, ratio vs control: 0.31 * | Fructose-6-phosphate, plasma, ratio vs control: 1.74 * | Glucose-6-phosphate, plasma, ratio vs control: 2.2 * | Histidine, plasma, ratio vs control: 1.17 * | Indole-3-lactic acid, plasma, ratio vs control: 1.13 * | Ornithine, plasma, ratio vs control: 1.11 * | Phenylalanine, plasma, ratio vs control: 1.2 * | Phosphate (inorganic and organic phosphates), plasma, ratio vs control: 1.57 * | Phosphatidylcholine (C18:0, C18:2), plasma, ratio vs control: 1.22 * | Progesterone, plasma, ratio vs control: 0.49* | Taurine, plasma, ratio vs control: 1.47 * | Threonic acid, plasma, ratio vs control: 1.51 * | Tryptophan, plasma, ratio vs control: 1.17 *
